Assays:
[1] = test system: SK-MEL-28 (melanoma skin cancer); test: MTT cell proliferation assay, SK-MEL-28; format: cell-based; conditions: Homo sapiens, 72 h incubation, 95% confidence interval in parentheses
Experimental: (§1) To use these S-glycosidic compounds in cellulo, the potential impact of the glycosidic linkage nature on the anticancer activity was assessed. The S-glycoside derivatives and the 7-MC were tested against four human cancer cell lines and a healthy one, namely A549 (lung carcinoma), HS-683 (glioma cancer), MCF-7 (breast adenocarcinoma), SK-MEL-28 (melanoma skin cancer), and HaCaT (keratinocyte normal skin), using MTT (thiazolyl blue tetrazolium bromide, Sigma-Aldrich, St. Louis, MO, USA) assay, as previously described in the literature. The selected reference drugs were 5-fluorouracil (5-FU) and etoposide.
(§2) Cell proliferation of five distinct cell lines was evaluated using the colorimetric MTT (thiazolyl blue tetrazolium bromide, Sigma) assay. Human keratinocyte normal skin HaCaT was cultivated in DMEM supplemented with 4.5 g/L glucose, 2 mM L-glutamine, and 10% FBS. Cancer cell lines and their respective growth media were obtained from CLS Cell Line Service GmbH (Eppelheim, Germany). Specifically, human skin melanoma SK-MEL-28 and human brain glioma HS683 were cultivated in DMEM with identical supplements as HaCaT cells. The human lung carcinoma cell line A-549 was grown in DMEM/Ham’s F12 (1:1) medium supplemented with 2 mM L-glutamine and 5% FBS. Additionally, human breast adenoma carcinoma MCF-7 cells were sustained in EMEM supplemented with 2 mM L-glutamine, sodium pyruvate, non-essential amino acids (NEAAs), 10 µg/mL insulin human, and 10% FBS. The MTT assay relies on the reduction of the yellow product thiazolyl blue tetrazolium bromide (MTT) to formazan, a purple-blue product, by mitochondrial dehydrogenases in metabolically active cells. The number of living cells after incubation in the presence (or absence, control) of the tested molecules is directly proportional to the blue color, which was measured by spectrophotometry. To perform the assay, cells were initially seeded at a density of 2500 cells/mL in 96-well culture plates (Nunc™ Edge 2.0, Fisher) and allowed to adhere and proliferate over a 24-hour incubation period. Following this, the cells were treated with various concentrations of the tested compounds, which were previously prepared as serial dilutions and dissolved in 0.1% DMSO. These stable solutions guarantee the consistency of experimental conditions over extended periods. Each concentration of the tested compounds underwent triplicate testing (n = 3), and cells were subsequently incubated for 72 h to allow for thorough evaluation. Following this incubation period, MTT reagent (5 mg/mL solution in PBS) was introduced to each well (10% v/v), and cells were further incubated for 4 h. Then, the culture medium was carefully removed, and the resulting blue formazan crystals were dissolved in 100 µL of 100% DMSO. Absorbance readings were taken at 540 nm, referencing a wavelength of 620 nm, using a spectrophotometer. In determining the IC50, the absorbance of serial dilutions of each cell line, treated under identical conditions but without the presence of the tested compounds, was measured.

[2] = UV-visible absorbance spectroscopy; format: physicochemical; conditions: 0.1 mM; for emax (molar absorption coefficient): 7-MC + DTT 10 mM; for Absorbance ε (molar absorption coefficient) / Absorbance λmax abs: 7-MC in presence of 10 mM DTT
Experimental: Subsequently, the analysis was carried out under two distinct conditions: firstly, in DMF, at a final concentration of 0.1 mM; and secondly, in a mixture PBS:DMF (99:1%), at the same final concentration of 0.1 mM. These two experimental setups provided valuable insights into the spectral characteristics of the compounds in both a pure organic solvent and a solvent system closely resembling physiological conditions. The maxima absorption wavelengths are compiled in Table 3. These bands were attributed to transitions within the benzene and pyrone moieties, considered together as a single chromophore. […] Similarly, 7-MC and S-1 to S-6 compounds also absorb in this UV range (λmax = 328–330 nm). […] In the organic solvent, these values are found to be higher compared to those calculated for 4-MUB and 7-MC. Conversely, in PBS, the extinction coefficients for S-glycosides are lower compared to the parent thiol 7-MC. This highlights the profound impact of glycosylation on absorption properties, as well as the importance of solvent choice.
Both absorbance and fluorescence spectra were measured on a Tecan […] M PLEX 200 Pro plate reader equipped with monochromator allowing a scan from 230 to 1000 nm. All synthesized molecules were initially dissolved in 10 mM DMF and subsequently diluted in freshly prepared PBS (pH = 7.4) to achieve a final concentration of 0.1 mM. The solutions were then transferred to a Corning (Corning, NY, USA) UV-transparent 96-well plate. Absorbance spectra were recorded from 230 to 800 nm. Emission fluorescence spectra were recorded from 320 to 800 nm, under excitation at 280 nm. Excitation fluorescence spectra were recorded from 230 to 380 nm for an emission at 420 nm. All spectra were recorded with a wavelength step size of 2 nm. Data processing was performed with Excel software 2016. Fluorescence spectra are presented as normalized spectra ranging from 0 to 1. The relative quantum yields were calculated according to Equation (1):(1) ΦT=(AR/AT)×(FT/FR)×[…]×ΦR where Φ is the fluorescence quantum yield, A is the absorbance at the excitation wavelength, F is the area under the corrected emission curve, and n is the refractive index of the solvent for the test compound (T) and the reference (R). The 4-MUB value in DMF was used as the reference. The LOD (resp. LOQ) values were determined as the minimal concentration of product S-3 required to yield a fluorescence that was twice greater than (respectively, 5-times that of) the fluorescence noise on a sample containing PBS, using an excitation wavelength of 280 nm and an emission wavelength of 386 nm (Figure S44).

HS683 (brain glioma) = test: MTT cell proliferation assay, HS683; format: cell-based; conditions: Homo sapiens, Hs 683, 72 h incubation, 95% confidence interval in parentheses
Experimental: as §1, §2

SMILES | IC50 [1] [mM] | emax (molar absorption coefficient) ([2]; DMF) | Absorbance ε (molar absorption coefficient) ([2]; DMF) | Absorbance λmax abs ([2]; DMF) [nm] | emax (molar absorption coefficient) ([2]; PBS 1x (pH = 7.4)) | Absorbance ε (molar absorption coefficient) ([2]; PBS (PBS:DMF 99:1, pH 7.4)) | Absorbance λmax abs ([2]; PBS (PBS:DMF 99:1, pH 7.4)) [nm] | IC50 (HS683 (brain glioma)) [mM]
Cc1cc(=O)oc2cc(S)ccc12 [Compound 7-MC, 7-mercapto-4-methylcoumarin, reference compound] | 0.306 | 10409,59 cm-1 M-1 | 10.4 10^3 M^−1 cm^−1 | 328 | 28929,88854 cm-1 M-1 | 28.9 10^3 M^−1 cm^−1 | 368 | 
Cc1cc(=O)oc2cc(S[C@@H]3O[C@H](C(=O)O)[C@@H](O)[C@H](O)[C@H]3O)ccc12 [Compound S-1, 4-Methylumbellifer-7-yl 1-thio-β-D-glucopyranosiduronic acid] | > 1 | 26660,51579 cm-1 M-1 | 26.7 10^3 M^−1 cm^−1 | 330 | 23328,41338 cm-1 M-1 | 23.3 10^3 M^−1 cm^−1 | 326 | > 1
Cc1cc(=O)oc2cc(S[C@@H]3OC[C@@H](O)[C@H](O)[C@H]3O)ccc12 [Compound S-2, 4-Methylumbellifer-7-yl 1-thio-β-D-xylopyranoside] | 0.228 |  | 19.5 10^3 M^−1 cm^−1 | 330 | 26044,28033 cm-1 M-1 | 26.0 10^3 M^−1 cm^−1 | 324 | 0.275
Cc1cc(=O)oc2cc(S[C@@H]3O[C@H](CO)[C@@H](O)[C@H](O)[C@H]3O)ccc12 [Compound S-3, 4-Methylumbellifer-7-yl 1-thio-β-D-glucopyranoside] | > 1 | 18634,68658 cm-1 M-1 | 18.6 10^3 M^−1 cm^−1 | 330 | 20778,59706 cm-1 M-1 | 20.8 10^3 M^−1 cm^−1 | 326 | > 1
Cc1cc(=O)oc2cc(S[C@@H]3O[C@H](CO)[C@H](O)[C@H](O)[C@H]3O)ccc12 [Compound S-4, 4-Methylumbellifer-7-yl 1-thio-β-D-galactopyranoside] | > 1 | 22265,68277 cm-1 M-1 | 22.3 10^3 M^−1 cm^−1 | 330 | 18357,93367 cm-1 M-1 | 18.4 10^3 M^−1 cm^−1 | 326 | > 1
Cc1cc(=O)oc2cc(S[C@@H]3O[C@H](C)[C@H](O)[C@H](O)[C@H]3O)ccc12 [Compound S-5, 4-Methylumbellifer-7-yl 1-thio-β-D-fucopyranoside] | > 1 | 22294,93104 cm-1 M-1 | 22.3 10^3 M^−1 cm^−1 | 330 |  | 10.4 10^3 M^−1 cm^−1 | 326 | > 1
Cc1cc(=O)oc2cc(S[C@H]3O[C@H](CO)[C@H](O)[C@H](O)[C@H]3O)ccc12 [Compound S-6, 4-Methylumbellifer-7-yl 1-thio-α-D-galactopyranoside] | > 1 | 22265,68277 cm-1 M-1 | 22.3 10^3 M^−1 cm^−1 | 330 | 19811,80752 cm-1 M-1 | 19.8 10^3 M^−1 cm^−1 | 326 | > 1
